Experimental data reported in the supplement of paper PMC10307832.

Legend:
Experiment in all cases: relative viability (nuclei count vs DMSO), 5 days (fraction); higher = more cells survive
NCI-H322M = system: NCI-H322M
Method in brief: (§1)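 Lung cancer cell lines, seeded in 1536-well plates, were treated the following day by pin tool with a single drug or with five library-drug doses (not always all listed) in √10 steps on top of a fixed anchor-drug dose. Cells were fixed and nuclei stained in one step after 5 days, and nuclei were counted. Relative viability is the nuclei count for treated wells divided by that for vehicle wells, reported as medians of duplicate plates.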

ChaGo-K-1 = system: ChaGo-K-1
Method in brief: as §1

NCI-H838 = system: NCI-H838
Method in brief: as §1

NCI-H2342 = system: NCI-H2342
Method in brief: as §1

NCI-H358 = system: NCI-H358
Method in brief: as §1

LCLC-97TM1 = system: LCLC-97TM1
Method in brief: as §1

NCI-H1651 = system: NCI-H1651
Method in brief: as §1

LC-2-ad = system: LC-2-ad
Method in brief: as §1

HCC-78 = system: HCC-78
Method in brief: as §1

PC-3 [JPC-3] = system: PC-3 [JPC-3]
Method in brief: as §1

HCC-15 = system: HCC-15
Method in brief: as §1

NCI-H2087 = system: NCI-H2087
Method in brief: as §1

NCI-H1944 = system: NCI-H1944
Method in brief: as §1

NCI-H1666 = system: NCI-H1666
Method in brief: as §1

LXF-289 = system: LXF-289
Method in brief: as §1

BEN = system: BEN
Method in brief: as §1

H3255 = system: H3255
Method in brief: as §1

LU99A = system: LU99A
Method in brief: as §1

NCI-H650 = system: NCI-H650
Method in brief: as §1

LK-2 = system: LK-2
Method in brief: as §1

NCI-H596 = system: NCI-H596
Method in brief: as §1

Structure (SMILES): COc1cc(N2CCC(C(N)=O)CC2)ccc1Nc1nc(N)c(Cl)c(Nc2ccccc2S(=O)(=O)C(C)C)n1 [HG-5-88-01] + NC(=O)Nc1cc(-c2cccc(F)c2)sc1C(=O)N[C@H]1CCCNC1 [AZD7762] (partner 0.2 µM)
- relative viability (NCI-H322M; first compound 0.04 µM): 0.665
- relative viability (NCI-H322M; first compound 0.1265 µM): 0.61
- relative viability (NCI-H322M; first compound 0.4 µM): 0.465
- relative viability (NCI-H322M; first compound 1.265 µM): 0.454
- relative viability (NCI-H322M; first compound 4 µM): 0.466
- relative viability (ChaGo-K-1; first compound 0.04 µM): 0.842
- relative viability (ChaGo-K-1; first compound 0.1265 µM): 0.909
- relative viability (ChaGo-K-1; first compound 0.4 µM): 0.828
- relative viability (ChaGo-K-1; first compound 1.265 µM): 0.852
- relative viability (ChaGo-K-1; first compound 4 µM): 0.727
- relative viability (NCI-H838; first compound 0.04 µM): 0.917
- relative viability (NCI-H838; first compound 0.1265 µM): 0.958
- relative viability (NCI-H838; first compound 0.4 µM): 0.881
- relative viability (NCI-H838; first compound 1.265 µM): 0.749
- relative viability (NCI-H838; first compound 4 µM): 0.847
- relative viability (NCI-H2342; first compound 0.04 µM): 0.47
- relative viability (NCI-H2342; first compound 0.1265 µM): 0.489
- relative viability (NCI-H2342; first compound 0.4 µM): 0.447
- relative viability (NCI-H2342; first compound 4 µM): 0.408
- relative viability (NCI-H358; first compound 0.04 µM): 0.498
- relative viability (NCI-H358; first compound 0.1265 µM): 0.503
- relative viability (NCI-H358; first compound 0.4 µM): 0.451
- relative viability (NCI-H358; first compound 1.265 µM): 0.223
- relative viability (NCI-H358; first compound 4 µM): 0.245
- relative viability (LCLC-97TM1; first compound 0.04 µM): 0.251
- relative viability (LCLC-97TM1; first compound 0.1265 µM): 0.262
- relative viability (LCLC-97TM1; first compound 0.4 µM): 0.231
- relative viability (LCLC-97TM1; first compound 1.265 µM): 0.225
- relative viability (LCLC-97TM1; first compound 4 µM): 0.0952
- relative viability (NCI-H1651; first compound 0.04 µM): 0.463
- relative viability (NCI-H1651; first compound 0.1265 µM): 0.447
- relative viability (NCI-H1651; first compound 0.4 µM): 0.439
- relative viability (NCI-H1651; first compound 1.265 µM): 0.342
- relative viability (NCI-H1651; first compound 4 µM): 0.321
- relative viability (LC-2-ad; first compound 0.04 µM): 0.888
- relative viability (LC-2-ad; first compound 0.1265 µM): 0.76
- relative viability (LC-2-ad; first compound 0.4 µM): 0.787
- relative viability (LC-2-ad; first compound 1.265 µM): 0.857
- relative viability (LC-2-ad; first compound 4 µM): 0.87
- relative viability (HCC-78; first compound 0.04 µM): 0.576
- relative viability (HCC-78; first compound 0.1265 µM): 0.553
- relative viability (HCC-78; first compound 0.4 µM): 0.472
- relative viability (HCC-78; first compound 1.265 µM): 0.361
- relative viability (HCC-78; first compound 4 µM): 0.364
- relative viability (PC-3 [JPC-3]; first compound 0.04 µM): 0.863
- relative viability (PC-3 [JPC-3]; first compound 0.1265 µM): 0.703
- relative viability (PC-3 [JPC-3]; first compound 0.4 µM): 0.732
- relative viability (PC-3 [JPC-3]; first compound 1.265 µM): 0.713
- relative viability (PC-3 [JPC-3]; first compound 4 µM): 0.344
- relative viability (HCC-15; first compound 0.04 µM): 1.27
- relative viability (HCC-15; first compound 0.1265 µM): 0.595
- relative viability (HCC-15; first compound 0.4 µM): 1.15
- relative viability (HCC-15; first compound 1.265 µM): 1.3
- relative viability (HCC-15; first compound 4 µM): 1.04
- relative viability (NCI-H2087; first compound 0.04 µM): 1.23
- relative viability (NCI-H2087; first compound 0.1265 µM): 1.26
- relative viability (NCI-H2087; first compound 0.4 µM): 1.45
- relative viability (NCI-H2087; first compound 1.265 µM): 1.14
- relative viability (NCI-H2087; first compound 4 µM): 1.17
- relative viability (NCI-H1944; first compound 0.04 µM): 0.586
- relative viability (NCI-H1944; first compound 0.1265 µM): 0.503
- relative viability (NCI-H1944; first compound 0.4 µM): 0.434
- relative viability (NCI-H1944; first compound 1.265 µM): 0.514
- relative viability (NCI-H1944; first compound 4 µM): 0.469
- relative viability (NCI-H1666; first compound 0.04 µM): 0.75
- relative viability (NCI-H1666; first compound 0.1265 µM): 0.783
- relative viability (NCI-H1666; first compound 0.4 µM): 0.779
- relative viability (NCI-H1666; first compound 1.265 µM): 0.771
- relative viability (NCI-H1666; first compound 4 µM): 0.53
- relative viability (LXF-289; first compound 0.04 µM): 1.11
- relative viability (LXF-289; first compound 0.1265 µM): 1.05
- relative viability (LXF-289; first compound 0.4 µM): 1.06
- relative viability (LXF-289; first compound 1.265 µM): 1.12
- relative viability (LXF-289; first compound 4 µM): 1.11
- relative viability (BEN; first compound 0.04 µM): 0.47
- relative viability (BEN; first compound 0.1265 µM): 0.69
- relative viability (BEN; first compound 0.4 µM): 0.635
- relative viability (BEN; first compound 1.265 µM): 0.615
- relative viability (BEN; first compound 4 µM): 0.576
- relative viability (H3255; first compound 0.04 µM): 1.16
- relative viability (H3255; first compound 0.1265 µM): 1.01
- relative viability (H3255; first compound 0.4 µM): 0.916
- relative viability (H3255; first compound 4 µM): 0.699
- relative viability (LU99A; first compound 0.04 µM): 0.326
- relative viability (LU99A; first compound 0.1265 µM): 0.336
- relative viability (LU99A; first compound 0.4 µM): 0.369
- relative viability (LU99A; first compound 1.265 µM): 0.366
- relative viability (LU99A; first compound 4 µM): 0.295
- relative viability (NCI-H650; first compound 0.04 µM): 1.04
- relative viability (NCI-H650; first compound 0.1265 µM): 1.07
- relative viability (NCI-H650; first compound 0.4 µM): 0.901
- relative viability (NCI-H650; first compound 1.265 µM): 1.01
- relative viability (NCI-H650; first compound 4 µM): 0.683
- relative viability (LK-2; first compound 0.04 µM): 0.326
- relative viability (LK-2; first compound 0.1265 µM): 0.329
- relative viability (LK-2; first compound 0.4 µM): 0.301
- relative viability (LK-2; first compound 4 µM): 0.157
- relative viability (NCI-H596; first compound 0.04 µM): 1.05
- relative viability (NCI-H596; first compound 0.1265 µM): 1.07
- relative viability (NCI-H596; first compound 0.4 µM): 1.04
- relative viability (NCI-H596; first compound 1.265 µM): 1.06
- relative viability (NCI-H596; first compound 4 µM): 0.697
